Columns and labels:
Type in all cases: in vivo, rat (Sprague-Dawley)
[1] = tested on: intracellular chronic reactive oxygen species (ROS) in lens epithelial cells (LEC); assay: Cytosolic ROS level in isolated rat lenses (H2-DCFH-DA staining) after 6 months of supplementation; conditions: FIG. 1
Procedure: (§1) Ten-day-old suckling rats (Sprague-Dawley, SD) were maintained under the barrier conditions in a temperature-controlled environment and fed a commercial mouse chow. All rat pups received a single subcutaneous injection of sodium selenite (20 μmol/kg body weight) on postpartum day 11. The opacity distribution (by surface plot and plot profile) of the rats' lenses were determined from the captured images by ImageJ analysis software after feeding 7 days. Testing opacity distribution aimed to show whether the formation of age-related lens degeneration is successful. The rats were then injected of sodium selenite every two weeks. And then these induced successfully rats were fed a commercial mouse chow for 15 months if succeeding.
Then these induced successfully rats were randomly divided into three groups: (1) non-supplement group (Group 1, Con, n=10); (2) L-ergothioncine supplement group with low dosage (Group 2, L-ergothioneine, 2 mg/kg/d, n=10); (3) L-ergothioncine supplement group with high dosage (Group 3, L-ergothioneine, 10 mg/kg/d, n=10). All rats were administered L-ergothioneine for once daily by gavage in normal saline solution for 6 months. The opacity distribution (by surface plot and plot profile) of the rats' lenses were observed from the captured images by ImageJ analysis software at the end of this study. […]

Nrf2 = Nrf2 mRNA level in LECs by real-time PCR after 6 months of supplementation; conditions: FIG. 2
Procedure: as §1, with “succeeding. […]” for “succeeding.”
Nrf2 dependent antioxidant protection system plays a crucial role in scavenging ROS generated during various biochemical reactions. […] Real-time PCR was measured and performed with the following primers: Nrf2 forward 5′-[…]-3′. RNA samples were reverse-transcribed to cDNA and subjected to quantitative PCR, performed with a Light Cycler 96 Real-Time PCR System using the AceQ qPCR SYBR Green Master Mix. […]

rats' lenses (opacity) = assay: Opacity distribution of lenses in sodium selenite-induced aged rats (ImageJ); conditions: 2 or 10 mg/kg/d by gavage once daily for 6 months, vs non-supplement group
Procedure: as §1, with “succeeding. Then these induced successfully rats were randomly divided into three groups: (1) non-supplement group (Group 1, Con, n=10); (2) L-ergothioncine supplement group with low dosage (Group 2, L-ergothioneine, 2 mg/kg/d, n=10); (3) L-ergothioncine supplement group with high dosage (Group 3, L-ergothioneine, 10 mg/kg/d, n=10). All rats were administered L-ergothioneine for once daily by gavage in normal saline solution for 6 months. The opacity distribution (by surface plot and plot profile) of the rats' lenses were observed from the captured images by ImageJ analysis software at the end of this study.” for “succeeding.”

C[N+](C)(C)[C@@H](Cc1c[nH]c(=S)[nH]1)C(=O)[O-] [ergothioneine, L-ergothioneine]
efficacy in ROS scavenging, high-dose group compared to low-dose group ([1]; 10 mg/kg/d vs 2 mg/kg/d by gavage for 6 months): approximately double
reduction of intracellular chronic ROS levels in LEC compared to the non-supplementation group ([1]; 2 and 10 mg/kg/d by gavage for 6 months): more than 25%
increase of Nrf2 mRNA level in LECs over placebo (Nrf2; high-dose group, 10 mg/kg/d by gavage for 6 months): around 180%
increase of Nrf2 mRNA level in LECs compared to placebo (Nrf2; low-dose group, 2 mg/kg/d by gavage for 6 months): ~50%
opacity of lens (opacity distribution by surface plot and plot profile) (rats' lenses (opacity)): effectively ameliorate or alleviate the opacity of lens
